# Test results reported in PubChem BioAssay AID720570 (Broad Institute, 2013).
# The source made the active and inactive calls.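 The calls were made as follows: active = cell-killing curve crosses a set limit at a concentration no more than twice the top valid dose; inconclusive = flat curve with a 30 to 70% loss, or a poor fit; inactive = signal rising instead of falling, and the rest.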
# System: not listed separately
# Assay: cytotoxicity in EWS/Fli1-dependent TC71 cells – cell-based, luminescence, cherry-picked samples, retest, confirmation (AID 720570)
# Conditions: TC71 Ewing sarcoma viability, CellTiter-Glo ATP, 72 h; at 26 µM (top of the series)
row,SMILES,"activity change, negative = cytotoxicity"
1,N/C(Cc1nc(-c2ccc(F)cc2)cs1)=N\O,11.6% (inactive)
2,O=C(NCc1ccccn1)c1ccc(CNS(=O)(=O)c2cccc(Cl)c2)cc1,3.71% (inactive)
3,N#C[C@@H]1[C@H](c2ccc(C#Cc3cccc(F)c3)cc2)[C@@H](CO)N1C(=O)C1CCCC1,-12.2% (inactive)
4,CCOC(=O)Cc1ccc(NC(=O)c2ccccc2Br)cc1,1.04% (inactive)
5,Cc1cc(C(=O)CN2C(=O)c3ccccc3S2(=O)=O)c(C)n1C(C)C,3.94% (inactive)
6,Cc1ccc2c(c1)C(=O)N1[C@H]3c4cc(Br)ccc4OC[C@@H]3[C@H](c3ccccc3)[C@]1(C)C(=O)N2,-5.71% (inactive)
7,C=CCOC(=O)c1sc(NC(=O)c2ccc(OC)cc2)nc1C,-3.67% (inactive)
8,CC(=O)c1ccc(N=Nc2ccc(C)cc2)cc1,13.2% (inactive)

# System: TC71 Ewing sarcoma viability, CellTiter-Glo ATP, 72 h
# Assay: as above
# Conditions: not given
row,SMILES,AC35
1,C[C@H]1O[C@@H](O[C@H]2[C@@H](O)C[C@H](O[C@H]3[C@@H](O)C[C@H](O[C@H]4CC[C@@]5(C)[C@H](CC[C@@H]6[C@@H]5C[C@@H](O)[C@]5(C)[C@@H](C7=CC(=O)OC7)CC[C@]65O)C4)O[C@@H]3C)O[C@@H]2C)C[C@H](O)[C@@H]1O,0.283 µM
2,CC1(C(=O)NCc2ccco2)Cc2c(-c3cccc(C(N)=O)c3)ccnc2O1 (stereo not given),7.99 µM
3,Cc1ccc(N2C(=O)c3cccc4c(N)ccc(c34)C2=O)c2cccnc12,0.0977 µM
4,CC(C)=CCC/C(C)=C/CN1C(=O)N(c2ccc(F)cc2)[C@H]2C[C@@H](c3ccccc3)[C@@H](C)[C@@H](C(=O)N3CCOCC3)C[C@H]21,4.4 µM
5,OC[C@H]1O[C@@H](n2cnc3c(NCc4ccco4)ncnc32)[C@H](O)[C@@H]1O,8.41 µM
6,C[C@]12CCC3C(CCC4=CC(O)CC[C@@]43/C=N/O)C1(O)CCC2C1=CC(=O)OC1 (stereo not given in full),1.82 µM
7,CCC1=Nc2cc(C(=O)NCC3CCCO3)ccc2Sc2ccc(Br)cc21 (stereo not given),6.83 µM
8,C[C@H]1CN([C@@H](C)CO)C(=O)c2cc(NS(=O)(=O)c3ccc(Cl)cc3)ccc2O[C@H]1CN(C)Cc1ccc(Cl)c(Cl)c1,20.3 µM
9,Nc1nc(=S)c2ncn([C@@H]3O[C@H](CO)[C@@H](O)[C@H]3O)c2[nH]1,1.74 µM
10,Oc1[nH]c2ccc(Br)cc2c1N=NC(=S)N1CCOCC1,2.87 µM
11,CCCCCCCN(c1ccccc1)[C@@H]1C[C@H]2CCCC(=O)N3CC[C@@H](C1)[C@@H]23,1.95 µM
12,CCc1nc(N)nc(N)c1-c1ccc(Cl)c(N=[N+]=[N-])c1,3.56 µM
13,OC[C@H]1[C@@H](c2ccc(C#CC3CCCC3)cc2)[C@@H]2CN(CCC(F)(F)F)CCCCN12,18 µM
14,C=C1C(=O)OC2C1CCC(C)C1(O)C=CC(=O)C21C (stereo not given),12.6 µM
15,O=C(Sc1cccc2cccnc12)c1ccccc1Br,10.5 µM
16,O=C(NC(c1ccc(F)cc1)c1ccc2ccccc2n1)C1CCN(Cc2cccc(C(F)(F)F)c2)CC1 (stereo not given),11.2 µM
17,C[C@@H]1CN([C@@H](C)CO)S(=O)(=O)c2ccc(C#CC(C)(C)O)cc2O[C@H]1CN(C)Cc1ccc(-c2ccccc2)cc1,3.55 µM
18,CCCCc1c(-c2ccccc2OC)ncn1Cc1ccc(C(C)(C)C)cc1,13.1 µM
19,O=C(O)c1ccccc1C(=O)Nc1ccc(Oc2ccc3ccccc3c2)cc1,9.26 µM
20,N#CC1=C(N)Oc2cc(N)ccc2C1c1cccc(F)c1 (stereo not given),4.98 µM
21,C[C@H](CO)N1C[C@H](C)[C@H](CN(C)Cc2ccc(C(=O)Nc3ccccc3N)cc2)Oc2ccc(NC(=O)C3CC3)cc2CC1=O,9.49 µM
22,C[C@H](CO)N1C[C@H](C)[C@H](CN(C)Cc2ccccc2)Oc2ccc(NC(=O)CCCCCC(=O)Nc3ccccc3N)cc2CC1=O,15.1 µM
23,Cc1cc(C)cc(N2C(=O)NC(=O)/C(=C\C=C\c3ccco3)C2=O)c1,11.3 µM
24,CN(C)c1ccc(N=Nc2nc3ccccc3n2C)cc1,13.6 µM
25,O=C(c1nnsc1S(=O)c1ccc(Cl)cc1)N1CCOCC1 (stereo not given),21.9 µM
26,O=C(O)c1ccc(N/N=C/c2ccc3nccnc3c2)cc1,16.3 µM
27,COc1ccc(OC)c(-c2nnc3n2N=C(c2ccc(OC)c(OC4CCOC4)c2)CS3)c1 (stereo not given),3.98 µM
